ChEMBL document CHEMBL1208700, “Anibamine, a natural product CCR5 antagonist, as a novel lead for the development of anti-prostate cancer agents” (Bioorg Med Chem Lett, 2010)
Calls of active or inactive are those of the source. The calls are words filed in the database; no cut-off is given here.

Tests used:
PC-3 = assay: Antiproliferative activity against human PC3 cells after 72 hrs by WST-1 assay; assay type: functional, cell-based
[1] = Toxicity in sheep RBC assessed as hemolysis at 1 uM after 60 mins; assay type: cell-based, Ovis aries; details: erythrocyte, 1 h
[2] = Inhibition of human M12 cells adhesion at 10 to 100 nM after 24 hrs; assay type: functional
M12 [3] = assay: Antiproliferative activity against human M12 cells after 72 hrs by WST-1 assay; assay type: functional, cell-based
M12 [4] = assay: Reversal of disorganized beta-1 integrin in human M12 cells at 1 uM after 8 days by confocal immunofluorescence microscopy; assay type: functional, cell-based
[5] = Reduction of vimentin gene expression in human M12 cells at 1 uM after 8 days by confocal immunofluorescence microscopy; assay type: functional, cell-based
[6] = Inhibition of human M12 cells invasion at 50 to 500 nM after 16 hrs; assay type: functional
DU-145 = assay: Antiproliferative activity against human DU145 cells after 72 hrs by WST-1 assay; assay type: functional, cell-based
M12 [7] = assay: Reversal of 3D IrECM gel-induced morphological changes in human M12 cells at 500 nM to 1 uM after 5 to 8 days by light microscopic analysis; assay type: functional, cell-based
M12 [8] = assay: Inhibition of human M12 cells invasion after 16 hrs; assay type: functional, cell-based
[9] = Antitumor activity against human M12 cells xenografted in athymic nude mouse assessed as reduction of tumor size at 0.3 mg/kg, iv administered once every fourth day for 16 days; assay type: functional; parameters: scale not given: the % may be the effect or the level left
M12 [10] = assay: Reversal of disorganized alpha6 integrin in human M12 cells at 1 uM after 8 days by confocal immunofluorescence microscopy; assay type: functional, cell-based

CCCCCCCC/C=C\c1c(C)c(/C=C\CCCCCCCC)c2[n+](c1C)CCC2.O=C([O-])C(F)(F)F [ANIBAMINE]
Activity (PC-3): Dose-dependent effect
Activity [1]: Non-toxic
inhibition (INH) [2]: 26%
Activity (M12 [3]): Dose-dependent effect
Activity (M12 [4]): Active
Activity [5]: Active
inhibition (INH) [6]: 42%
Activity (DU-145): Dose-dependent effect
Activity (M12 [7]): Active
inhibition (M12 [8]): Dose-dependent effect
Activity [9]: 50%
Activity (M12 [10]): Active
